Test results reported in PubChem BioAssay AID240 (DTP/NCI, 2004).
Several values for one entry are separate records, joined by “and”; a condition that tells them apart may be missing. Equal entries are not always repeated. Inconclusive results and toxic doses are left out.

Tested on: Lymphoma 4 ip in BDF1 mice, median survival
Experiment: NCI In Vivo Anticancer Drug Screen. Data for tumor model Lymphoma 4 (intraperitoneal) in B6D2F1 (BDF1) mice
Details: endpoint: median survival time, schedule: Q01DX010 (ip), higher = longer survival
Method: The antitumor activity of compounds was measured in mice bearing transplantable tumors. Survival or tumor size were measured and the results are expressed as the measurement made in the treated group (T) divided by the measurement made in the vehicle treated control group (C). The tumor model used in this assay is Lymphoma 4 (intraperitoneal) in B6D2F1 (BDF1) mice

[1] = dose: 7.5 mg/kg/injection, vehicle: saline
[2] = dose: 15.0 mg/kg/injection, vehicle: saline
[3] = dose: 30.0 mg/kg/injection, vehicle: saline
[4] = dose: 60.0 mg/kg/injection, vehicle: saline
[5] = dose: 15.6 mg/kg/injection, vehicle: saline
[6] = dose: 31.3 mg/kg/injection, vehicle: saline
[7] = dose: 62.5 mg/kg/injection, vehicle: saline
[8] = dose: 25.0 mg/kg/injection, vehicle: saline
[9] = dose: 50.0 mg/kg/injection, vehicle: saline
[10] = dose: 100.0 mg/kg/injection, vehicle: saline
[11] = dose: 200.0 mg/kg/injection, vehicle: saline
[12] = dose: 3.13 mg/kg/injection, vehicle: saline
[13] = dose: 6.25 mg/kg/injection, vehicle: saline
[14] = dose: 12.5 mg/kg/injection, vehicle: saline
[15] = dose: 4.0 mg/kg/injection, vehicle: saline
[16] = dose: 8.0 mg/kg/injection, vehicle: saline
[17] = dose: 16.0 mg/kg/injection, vehicle: saline
[18] = dose: 10.0 mg/kg/injection, vehicle: saline
[19] = dose: 0.63 mg/kg/injection, vehicle: saline
[20] = dose: 1.25 mg/kg/injection, vehicle: saline
[21] = dose: 32.0 mg/kg/injection, vehicle: saline
[22] = dose: 125.0 mg/kg/injection, vehicle: saline
[23] = dose: 250.0 mg/kg/injection, vehicle: saline
[24] = dose: 500.0 mg/kg/injection, vehicle: saline
[25] = dose: 6.0 mg/kg/injection, vehicle: saline
[26] = dose: 2.0 mg/kg/injection, vehicle: saline
[27] = dose: 20.0 mg/kg/injection, vehicle: saline
[28] = dose: 5.0 mg/kg/injection, vehicle: saline
[29] = dose: 40.0 mg/kg/injection, vehicle: saline
[30] = dose: 0.5 mg/kg/injection, vehicle: saline
[31] = dose: 400.0 mg/kg/injection, vehicle: saline

Clc1ncnc2nc[nH]c12
T/C [1]: 100 % of control and 102 % of control | T/C [2]: 90 % of control and 94 % of control | T/C [3]: 90 % of control and 105 % of control | T/C [4]: 96 % of control and 100 % of control

CCCCNc1ncnc2c1cnn2C
T/C [5]: 103 % of control and 108 % of control | T/C [6]: 102 % of control and 103 % of control | T/C [7]: 100 % of control and 123 % of control

CSc1ncnc2nc[nH]c12
T/C [8]: 100 % of control and 103 % of control | T/C [9]: 96 % of control and 115 % of control | T/C [10]: 103 % of control | T/C [11]: 100 % of control and 115 % of control

CCCNc1ncnc2[nH]ncc12
T/C [12]: 109 % of control and 111 % of control | T/C [13]: 103 % of control and 123 % of control | T/C [14]: 103 % of control and 117 % of control | T/C [8]: 91 % of control and 109 % of control

CN(C)c1ccc(/C=C/c2ccnc3ccccc23)cc1
T/C [15]: 93 % of control and 103 % of control | T/C [16]: 96 % of control and 100 % of control | T/C [17]: 93 % of control and 100 % of control

COc1cc(-c2ccc(Nc3ccccc3C(=O)O)c(OC)c2)ccc1N
T/C [18]: 119 % of control

S=P(N1CCOCC1)(N1CC1)N1CC1
T/C [19]: 100 % of control | T/C [20]: 100 % of control

CN1CC[C@]23c4c5ccc(O)c4O[C@H]2C(=O)CC[C@H]3[C@H]1C5
T/C [15]: 96 % of control | T/C [16]: 100 % of control and 103 % of control | T/C [17]: 96 % of control and 100 % of control | T/C [21]: 96 % of control and 100 % of control

O=CCC(O)C(O)C(O)CO (centres undefined)
T/C [7]: 100 % of control | T/C [22]: 100 % of control and 103 % of control | T/C [23]: 103 % of control and 107 % of control | T/C [24]: 100 % of control and 110 % of control

CCOC(=O)c1[nH]c2ccccc2c1CN(CCCl)CCCl
T/C [18]: 116 % of control

C[C@H]1C(=O)O[C@@H]2CCN3CC=C(COC(=O)[C@](C)(O)[C@@]1(C)O)[C@H]23
T/C [12]: 94 % of control and 100 % of control | T/C [13]: 93 % of control and 94 % of control | T/C [14]: 94 % of control and 103 % of control | T/C [8]: 91 % of control and 103 % of control

C#CCN(C)Cc1ccccc1
T/C [8]: 93 % of control | T/C [9]: 93 % of control | T/C [10]: 96 % of control | T/C [11]: 96 % of control

S=P(N1CC1)(N1CC1)N1CC1
T/C (dose: 0.05 mg/kg/injection, vehicle: saline): 106 % of control | T/C (dose: 0.75 mg/kg/injection, vehicle: saline): 110 % of control | T/C (dose: 1.5 mg/kg/injection, vehicle: saline): 117 % of control and 123 % of control | T/C [25]: 114 % of control

CC(CCC(C)OS(C)(=O)=O)OS(C)(=O)=O (centres undefined)
T/C [26]: 103 % of control | T/C [15]: 103 % of control and 107 % of control | T/C [16]: 96 % of control and 100 % of control | T/C [17]: 107 % of control and 113 % of control

O=C(Nc1ccc(C2=NCCN2)cc1)c1ccc(C(=O)Nc2ccc(C3=NCCN3)cc2)c([N+](=O)[O-])c1
T/C [25]: 157 % of control | T/C [16]: 189 % of control and 278 % of control | T/C (dose: 12.0 mg/kg/injection, vehicle: saline): 185 % of control and 300 % of control | T/C (dose: 18.0 mg/kg/injection, vehicle: saline): 96 % of control and 121 % of control

COc1cc(-c2ccc(Nc3ccccc3C(=O)O)c(OC)c2)ccc1Nc1ccccc1C(=O)O
T/C [14]: 107 % of control | T/C [8]: 115 % of control | T/C [9]: 123 % of control

O=C(Nc1ccc(NC2=NCCN2)cc1)c1ccc(C(=O)Nc2ccc(NC3=NCCN3)cc2)cc1
T/C [26]: 113 % of control and 121 % of control | T/C [16]: 207 % of control | T/C [17]: 96 % of control

Oc1cc(CN(CCCl)CCCl)c(O)cc1CN(CCCl)CCCl
T/C [19]: 113 % of control and 120 % of control | T/C [20]: 106 % of control and 116 % of control

Cc1cc(N(CCCl)CCCl)ccc1N=Nc1ccccc1C(=O)O
T/C [18]: 171 % of control | T/C [27]: 150 % of control and 166 % of control

Nc1nc(SCc2ccccc2)c2[nH]cnc2n1
T/C [16]: 96 % of control and 100 % of control | T/C [17]: 96 % of control and 100 % of control

N=C(N)SCc1c2ccccc2c(CSC(=N)N)c2ccccc12
T/C [28]: 170 % of control | T/C [18]: 211 % of control | T/C [27]: 303 % of control | T/C [29]: 96 % of control

CC[n+]1c(-c2ccccc2)c2cc(N)ccc2c2ccc(N)cc21
T/C [18]: 242 % of control

C1CN1c1nc(N2CC2)nc(N2CC2)n1
T/C (dose: 0.13 mg/kg/injection, vehicle: saline): 94 % of control and 105 % of control | T/C (dose: 0.25 mg/kg/injection, vehicle: saline): 100 % of control and 102 % of control | T/C [30]: 108 % of control | T/C (dose: 1.0 mg/kg/injection, vehicle: saline): 97 % of control

CCn1cnc2c(=S)nc[nH]c21
T/C [15]: 96 % of control | T/C [16]: 100 % of control | T/C [5]: 93 % of control and 106 % of control | T/C [17]: 96 % of control | T/C [6]: 103 % of control | T/C [21]: 96 % of control and 100 % of control | T/C [7]: 100 % of control

CC(=O)N(C)C
T/C [7]: 87 % of control | T/C [23]: 88 % of control | T/C [24]: 100 % of control

C[C@@H]1C[C@@H]([C@H](O)CC2CC(=O)NC(=O)C2)C(=O)[C@@H](C)C1
T/C [28]: 96 % of control and 105 % of control | T/C [18]: 93 % of control and 117 % of control | T/C [27]: 117 % of control and 121 % of control | T/C [29]: 108 % of control

CN(C)[C@@H]1C(=O)C(C(N)=O)=C(O)[C@@]2(O)C(=O)C3=C(O)c4c(O)cccc4C[C@H]3C[C@@H]12
T/C (dose: 3.75 mg/kg/injection, vehicle: saline): 114 % of control | T/C [1]: 107 % of control and 111 % of control | T/C [2]: 107 % of control | T/C [3]: 100 % of control and 107 % of control

CS(=O)(=O)OCCN(CCOS(C)(=O)=O)c1ccc(N=O)cc1
T/C [30]: 123 % of control

O=C(O)CCCc1ccc(N(CCCl)CCCl)cc1
T/C [12]: 100 % of control and 105 % of control | T/C [13]: 100 % of control and 123 % of control | T/C [14]: 114 % of control

O=c1cn[nH]c(=O)[nH]1
T/C [7]: 93 % of control and 108 % of control | T/C [22]: 103 % of control and 105 % of control | T/C [23]: 97 % of control and 106 % of control | T/C [24]: 102 % of control and 103 % of control

O=c1cnn(C2OC(CO)C(O)C2O)c(=O)[nH]1 (centres undefined)
T/C [11]: 106 % of control | T/C [31]: 112 % of control | T/C (dose: 800.0 mg/kg/injection, vehicle: saline): 106 % of control

Nc1nc(N)c2nc(CNc3ccc(C(=O)NC(CCC(=O)O)C(=O)O)cc3)cnc2n1 (centres undefined)
T/C (dose: 0.05 mg/kg/injection, vehicle: other): 96 % of control and 110 % of control | T/C (dose: 0.1 mg/kg/injection, vehicle: other): 110 % of control and 114 % of control | T/C (dose: 0.2 mg/kg/injection, vehicle: other): 116 % of control and 117 % of control

O=C(O)c1[nH]c(=O)[nH]c(=O)c1F
T/C [20]: 120 % of control | T/C [28]: 163 % of control and 175 % of control | T/C [18]: 96 % of control

N#CCSc1ncnc2nc[nH]c12
T/C [2]: 103 % of control | T/C [3]: 100 % of control and 107 % of control | T/C [4]: 100 % of control and 107 % of control | T/C (dose: 120.0 mg/kg/injection, vehicle: saline): 107 % of control

CCOC(N)=O
T/C [22]: 103 % of control and 117 % of control | T/C [23]: 106 % of control and 111 % of control

CS(=O)(=O)OCC(O)C(O)C(O)C(O)COS(C)(=O)=O (centres undefined)
T/C [9]: 100 % of control | T/C [10]: 103 % of control | T/C [11]: 103 % of control | T/C [31]: 114 % of control

CS(=O)(=O)OCCCl
T/C (dose: 9.4 mg/kg/injection, vehicle: saline): 100 % of control | T/C (dose: 18.8 mg/kg/injection, vehicle: saline): 100 % of control and 103 % of control | T/C (dose: 37.5 mg/kg/injection, vehicle: saline): 100 % of control and 106 % of control | T/C (dose: 75.0 mg/kg/injection, vehicle: saline): 96 % of control and 103 % of control

CC[C@]1(O)C[C@H]2CN(CCc3c([nH]c4ccccc34)[C@@](C(=O)OC)(c3cc4c(cc3OC)N(C=O)[C@H]3[C@@](O)(C(=O)OC)[C@H](OC(C)=O)[C@]5(CC)C=CCN6CC[C@]43[C@@H]65)C2)C1
T/C (dose: 0.03 mg/kg/injection, vehicle: saline): 104 % of control and 121 % of control | T/C (dose: 0.06 mg/kg/injection, vehicle: saline): 108 % of control | T/C (dose: 0.12 mg/kg/injection, vehicle: saline): 158 % of control | T/C [30]: 104 % of control
